Test results: patent US5242930A, “Azabicyclic compounds, pharmaceutical compositions containing them and their use in therapy” (Merck Sharp & Dohme Ltd., priority 1991, dated 1993)
Structures can show the parent of a compound that is named as a salt.

Test system: longitudinal muscle of guinea pig ileum
Assay: Antagonism of the contraction elicited by SPOMe (substance P methyl ester) on guinea pig ileum longitudinal muscle (isometric contraction)
Settings: Cavia porcellus, compound at 1.0 μM, 0.1μM SPOMe

| SMILES | inhibition at 1 µM |
| --- | --- |
| O=[N+]([O-])c1cccc(CO[C@H]2C3CCN(CC3)[C@H]2C(c2ccccc2)c2ccccc2)c1 (relative stereo) [Example 1, cis-2-(Diphenylmethyl)-3-(3-nitrobenzyloxy)-1-azabicyclo[2.2.2]octane oxalate] | > 70% |
| Fc1cc(F)cc(CO[C@H]2C3CCN(CC3)[C@H]2C(c2ccccc2)c2ccccc2)c1 (relative stereo) [Example 7, cis-3-(3,5-Difluorobenzyloxy)-2-(diphenylmethyl)-1-azabicyclo[2.2.2]octane oxalate] | > 70% |
| Clc1cccc(CO[C@H]2C3CCN(CC3)[C@H]2C(c2ccccc2)c2ccccc2)c1 (relative stereo) [Example 4, cis-3-(3-Chlorobenzyloxy)-2-(diphenylmethyl)-1-azabicyclo[2.2.2]octane oxalate] | > 70% |
| COc1ccc(CO[C@H]2C3CCN(CC3)[C@H]2C(c2ccccc2)c2ccccc2)cc1 (relative stereo) [Example 8, cis-2-(Diphenylmethyl)-3-(4-methoxybenzyloxy)-1-azabicyclo[2.2.2]octane oxalate] | > 70% |
| FC(F)(F)c1ccccc1CO[C@H]1C2CCN(CC2)[C@H]1C(c1ccccc1)c1ccccc1 (relative stereo) [Example 2, cis-2-(Diphenylmethyl)-3-[2-(trifluoromethyl)benzyloxy]-1-azabicyclo[2.2.2]octane oxalate] | > 70% |
